Laboratory results as given in patent US11608341B2, “Substituted tetrahydropyrazolo[3,4-d]pyrimidines and tetrahydropyrazolo[4,3-d]pyrimidines as C5A receptor modulators” (Idorsia Pharmaceuticals Ltd., priority 2018, dated 2023).

biological target: T1, C5AR1 (Homo sapiens, UniProt P21730); assay: In vitro assay: antagonism of C5a-induced beta-arrestin recruitment (PathHunter) in CHO-K1 C5AR1 beta-arrestin cell line; type: cell-based; settings: antagonistic activity, 1-10 nM C5a agonist, geometric mean where several measurements, read-out: C5aR IC50
T1 construct: host or cells: CHO-K1
T1 sequence (P21730 1-350): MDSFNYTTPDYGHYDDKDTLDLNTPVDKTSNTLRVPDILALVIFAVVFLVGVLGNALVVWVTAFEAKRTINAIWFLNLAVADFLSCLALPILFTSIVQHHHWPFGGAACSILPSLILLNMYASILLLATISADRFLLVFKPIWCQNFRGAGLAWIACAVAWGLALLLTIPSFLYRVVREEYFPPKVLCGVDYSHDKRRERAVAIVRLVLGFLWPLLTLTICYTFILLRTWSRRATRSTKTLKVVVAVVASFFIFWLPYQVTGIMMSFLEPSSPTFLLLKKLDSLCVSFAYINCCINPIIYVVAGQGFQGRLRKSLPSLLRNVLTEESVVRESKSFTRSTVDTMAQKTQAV
Method in brief: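 Antagonist or DMSO added first, then C5a (1-10 nM, added at 6-fold end concentration), 1.5 h at 37 °C. PathHunter detection reagent was added for 45 min at RT before plate reading. IC50s come from antagonist serial dilutions in nmol/l and are geometric means of several measurements.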

Row | Compound | IC50
1 | Cc1cccc(F)c1N1CCC(N2Cc3cn(CC(F)F)nc3N(Cc3ccccc3C(F)(F)F)C2=O)CC1 [Example 159] | 8 nM
2 | COc1nccc(C)c1N1CCC(N2C(=O)N(Cc3ccccc3C(F)(F)F)c3c[nH]nc3C2C)CC1 (single isomer, unassigned) [Example 295] | 25 nM
3 | Cc1cccc(F)c1N1CCCC(N2Cc3cn(C)nc3N(Cc3ccccc3C(F)(F)F)C2=O)C1 (single isomer, unassigned) [Example 241] | 112 nM
4 | Cc1cccc(F)c1N1CCC(N2Cc3cn(CC#N)nc3N(Cc3ccccc3C(F)(F)F)C2=O)CC1 [Example 24] | 15 nM
5 | Cc1cccc(F)c1N1CCC(N2Cc3cn(C4COC4)nc3N(Cc3ccccc3C(F)(F)F)C2=O)CC1 [Example 77] | 10 nM
6 | Cc1cccc(F)c1N1CCC(N2Cc3cn(CC(C)F)nc3N(Cc3ccccc3C(F)(F)F)C2=O)CC1 (single isomer, unassigned) [Example 186] | 8 nM
7 | Cc1cccc(F)c1N1CCC(N2Cc3cn(C)nc3N(C(C)c3ccccc3C(F)(F)F)C2=O)CC1 (single isomer, unassigned) [Example 247] | 21 nM
8 | Cc1cccc(F)c1N1CCC(N2Cc3cn(C(=O)N(C)CC(C)C)nc3N(Cc3ccccc3C(F)(F)F)C2=O)CC1 [Example 150] | 767 nM
9 | COc1nccc(C)c1N1CCC(N2Cc3cn(CC(C)(F)F)nc3N(Cc3ccccc3C(F)(F)F)C2=O)CC1 [Example 205] | 8 nM
10 | Cc1cccc(F)c1N1CCC(N2C(=O)N(Cc3ccccc3C(F)(F)F)c3nn(C4CCCCO4)cc3C2C)CC1 (centres unmarked) [Example 313] | 13 nM
11 | Cc1cccc(F)c1N1CCC(N2Cc3nn(CC4(F)CC4)cc3N(Cc3ncccc3C(F)(F)F)C2=O)CC1 [Example 208] | 3 nM
12 | Cc1cccc(F)c1N1CCC(N2Cc3cn(CC4(C)CC4)nc3N(Cc3ccccc3C(F)(F)F)C2=O)CC1 [Example 158] | 11 nM
13 | C=C(C)n1cc2c(n1)CN(C1CCN(c3c(C)cccc3F)CC1)C(=O)N2Cc1ccccc1C(F)(F)F [Example 192] | 4 nM
14 | COc1nccc(C)c1N1CCC(N2C(=O)N(Cc3ccccc3C3CC3)c3nn(C4CC4)cc3C2C)CC1 (single isomer, unassigned) [Example 381] | 190 nM
15 | COc1nccc(C)c1N1CCC(N2Cc3cn(C)nc3N(C(C)c3ccccc3C(F)(F)F)C2=O)CC1 (single isomer, unassigned) [Example 287] | 37 nM
16 | COc1nccc(C)c1N1CCC(N2Cc3nn(C)nc3N(Cc3ncccc3C(F)(F)F)C2=O)CC1 [Example 146] | 32 nM
17 | COC(=O)N1CC(n2cc3c(n2)N(Cc2ccccc2C(F)(F)F)C(=O)N(C2CCN(c4c(C)cccc4F)CC2)C3)C1 [Example 117] | 33 nM
18 | Cc1cccc(F)c1N1CCC(N2Cc3cn(C4CN(CCF)C4)nc3N(Cc3ccccc3C(F)(F)F)C2=O)CC1 [Example 107] | 52 nM
19 | Cc1cccc(F)c1N1CCC(N2C(=O)N(Cc3ccccc3C3CC3)c3cn(C4CCCCO4)nc3C2C)CC1 (centres unmarked) [Example 268] | 72 nM
20 | Cc1cccc(F)c1N1CCC(N2C(=O)N(Cc3ccccc3C(F)(F)F)c3nn(C4CC4)cc3C2C)CC1 (single isomer, unassigned) [Example 310] | 30 nM
21 | Cc1cccc(F)c1N1CCC(N2Cc3nn(C)cc3N(Cc3ncccc3C(F)(F)F)C2=O)CC1 [Example 15] | 45 nM

Continued by falling IC50, values first:

Row | IC50 | Compound
22 | 844 nM | CC(=O)N1CC(n2cc3c(n2)N(Cc2ccccc2C(F)(F)F)C(=O)N(C2CCN(c4c(C)cccc4F)CC2)C3)C1 [Example 116]
23 | 350 nM | Cc1cccc(F)c1N1CCC(N2Cc3cn(CC(C)N)nc3N(Cc3ccccc3C(F)(F)F)C2=O)CC1 (centres unmarked) [Example 80]
24 | 146 nM | Cc1cccc(F)c1N1CCC(N2Cc3cn(C4CN(CC(C)C)C4)nc3N(Cc3ccccc3C(F)(F)F)C2=O)CC1 [Example 104]
25 | 125 nM | COc1ccnc(OC)c1N1CCC(N2Cc3cn(C)nc3N(Cc3ccccc3C(F)(F)F)C2=O)CC1 [Example 95]
26 | 95 nM | Cc1cccc(F)c1N1CCC(N2Cc3cn(CC(=O)N(C)C)nc3N(Cc3ccccc3C(F)(F)F)C2=O)CC1 [Example 30]
27 | 69 nM | Cc1cccc(F)c1N1CCC(N2Cc3cn(C)nc3N(Cc3cncnc3C(C)C)C2=O)CC1 [Example 249]
28 | 53 nM | Cc1ccc(C(F)(F)F)c(CN2C(=O)N(C3CCN(c4c(C)cccc4F)CC3)Cc3cn(C)nc32)n1 [Example 37]
29 | 33 nM | COc1nccc(C)c1N1CCC(N2Cc3cn(C)nc3N(C(C)c3ccccc3C(F)(F)F)C2=O)CC1 (single isomer, unassigned) [Example 286]
30 | 26 nM | C=C(C)Cn1cc2c(n1)N(Cc1ccccc1C(F)(F)F)C(=O)N(C1CCN(c3c(C)cccc3F)CC1)C2 [Example 154]
31 | 21 nM | Cc1cccc(F)c1N1CCC(N2Cc3nn(C)nc3N(Cc3ccccc3C(F)(F)F)C2=O)CC1 [Example 81]
32 | 20 nM | Cc1cccc(F)c1N1CCC(N2Cc3cn(C[C@H]4CCN4C(=O)OC(C)(C)C)nc3N(Cc3ccccc3C(F)(F)F)C2=O)CC1 [Example 129]
33 | 20 nM | Cc1cccc(F)c1N1CCC(N2C(=O)N(Cc3ccccc3C3CC3)c3c[nH]nc3C2C)CC1 (single isomer, unassigned) [Example 275]
34 | 18 nM | CC1c2nn(C3CC3)cc2N(Cc2ccccc2C(F)(F)F)C(=O)N1C1CCN(c2c(F)cccc2C(F)F)CC1 (single isomer, unassigned) [Example 329]
35 | 18 nM | Cc1cccc(F)c1N1CCC(N2Cc3cn(C4CN(C(=O)OC5COC5)C4)nc3N(Cc3ccccc3C(F)(F)F)C2=O)CC1 [Example 139]
36 | 17 nM | COC(=O)C(C)(C)n1cc2c(n1)N(Cc1ccccc1C(F)(F)F)C(=O)N(C1CCN(c3c(C)cccc3F)CC1)C2 [Example 27]
37 | 17 nM | Cn1cc2c(n1)N(Cc1ccccc1C1CC1)C(=O)N(C1CCN(c3c(F)cccc3OC(F)(F)F)CC1)C2 [Example 281]
38 | 16 nM | Cc1cccc(F)c1N1CCC(N2Cc3nn(CC(C)(C)F)cc3N(Cc3ccccc3C(F)(F)F)C2=O)CC1 [Example 176]
39 | 15 nM | Cc1cccc(F)c1N1CCC(N2Cc3cn(CCNC(=O)OC(C)(C)C)nc3N(Cc3ccccc3C(F)(F)F)C2=O)CC1 [Example 67]
40 | 14 nM | Cn1cc2c(n1)N(Cc1ccccc1C(F)(F)F)C(=O)N(C1CCN(c3ccccc3C3CC3)CC1)C2 [Example 258]
41 | 13 nM | Cc1cccc(F)c1N1CCC(N2Cc3cn(C(C)C(F)F)nc3N(Cc3ccccc3C(F)(F)F)C2=O)CC1 (single isomer, unassigned) [Example 187]
42 | 12 nM | Cc1cccc(F)c1N1CCC(N2Cc3cn(CC4(C)COC4)nc3N(Cc3ccccc3C(F)(F)F)C2=O)CC1 [Example 166]
43 | 12 nM | Cn1cc2c(n1)N(Cc1ccccc1C(F)(F)F)C(=O)N(C1CCN(c3c(F)cccc3C#N)CC1)C2 [Example 49]
44 | 9 nM | Cn1cc2c(n1)N(Cc1ccccc1C1CC1)C(=O)N(C1CCN(c3c(F)cccc3F)CC1)C2 [Example 285]
45 | 7 nM | Cc1cccc(F)c1N1CCC(N2Cc3cn(C(C)C)nc3N(Cc3ccccc3C(F)(F)F)C2=O)CC1 [Example 161]
46 | 6 nM | Cc1cccc(F)c1N1CCC(N2Cc3cn(CC(C)(C)F)nc3N(Cc3ccccc3C(F)(F)F)C2=O)CC1 [Example 168]
47 | 6 nM | COc1nccc(C)c1N1CCC(N2C(=O)N(Cc3ccccc3C(F)(F)F)c3nn(C)cc3C2C)CC1 (single isomer, unassigned) [Example 331]
